Read-outs that look alike come from different tables or passages of the source.
Assays:
SFTSV EndoN [1] = molecular target: T1, SFTSV EndoN (Dabie bandavirus, UniProt I0DF35); assay: biochemical
SFTSV [2] = test system: SFTSV
[3] = pharmacokinetic analysis in rats; conditions: 20 mg/kg
LCMV [4] = assay: organism not typed; assay type: cell-based, lymphatic choriomeningitis virus; conditions: BHK-21, read-out: EC50 against LCMV
water solubility = assay type: physicochemical
SFTSV [5] = assay type: cell-based, severe fever with thrombocytopenia syndrome virus
LCMV EndoN = molecular target: T2, LCMV EndoN (Lymphocytic choriomeningitis virus, UniProt P14240); assay: biochemical
T2 sequence (P14240 26-287 limits assumed): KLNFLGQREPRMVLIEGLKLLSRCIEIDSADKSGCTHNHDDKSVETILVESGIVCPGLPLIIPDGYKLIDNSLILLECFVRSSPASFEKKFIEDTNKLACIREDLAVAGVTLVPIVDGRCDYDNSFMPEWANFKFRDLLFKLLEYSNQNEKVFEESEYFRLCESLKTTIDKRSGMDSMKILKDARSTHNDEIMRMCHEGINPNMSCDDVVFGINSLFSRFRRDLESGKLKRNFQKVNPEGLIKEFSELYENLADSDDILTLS

[6] = cytotoxicity by CCK8 assay; conditions: African green monkey, Vero cells
IAV (H1N1) [7] = assay: microbe, parasite or virus in culture; assay type: cell-based; conditions: Influenza A virus, H1N1, MDCK, read-out: EC50 against IAV (H1N1)
HRTV = assay: microbe, parasite or virus in culture; assay type: cell-based; conditions: Heartland virus, Vero, 36 h, read-out: EC50 against HRTV
SFTSV [8] = conditions: mouse, in vivo
GTV = assay: microbe, parasite or virus in culture; assay type: cell-based; conditions: Guertu virus, Vero, 36 h, read-out: EC50 against GTV
SFTSV EndoN [9] = molecular target: T1, SFTSV EndoN; assay: biochemical; assay type: binding
SFTSV [10] = assay: microbe, parasite or virus in culture; assay type: cell-based; conditions: Severe fever with thrombocytopenia syndrome virus, Huh-7, 36 h, read-out: EC50 (Huh 7) against SFTSV
SFTSV [11] = assay: microbe, parasite or virus in culture; conditions: Severe fever with thrombocytopenia syndrome virus, Vero, 36 h, read-out: EC50 (Vero) against SFTSV
LCMV [12] = conditions: mouse, in vivo
SFTSV EndoN [13] = molecular target: T1, SFTSV EndoN; assay type: biochemical
IAV (H1N1) [14] = conditions: mouse, in vivo
[15] = compared with tanshinone IIA; cited from earlier work
[16] = male, Sprague-Dawley, rat, plasma, ip
[17] = male, Sprague-Dawley, rat, plasma, iv

T1 sequence (I0DF35 20-221 limits assumed): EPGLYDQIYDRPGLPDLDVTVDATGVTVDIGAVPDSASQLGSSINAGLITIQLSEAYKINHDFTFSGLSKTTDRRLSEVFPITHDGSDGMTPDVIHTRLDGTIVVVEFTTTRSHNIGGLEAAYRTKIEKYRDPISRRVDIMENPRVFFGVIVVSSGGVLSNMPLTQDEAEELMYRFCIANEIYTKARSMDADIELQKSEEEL

SMILES | SI (CC50/EC50) (SFTSV [2]) | EC50 (LCMV [4]) | stage of action in time-of-addition experiment (SFTSV [5]) | CC50 at 36 h [6] | EC50 (IAV (H1N1) [7]) | EC50 (HRTV) | EC50 (GTV) | EC50 (SFTSV [10]) | EC50 (SFTSV [11]) | inhibition of cleavage of FAM-labeled ssRNA substrate (SFTSV EndoN [13]) | further results
Cc1coc2c1C(=O)C(=O)c1c-2ccc2c(C)cccc12 [Tanshinone I, tanshinone I] | 121 | 2.92 µM | acted at the post-entry stage | 245 µM | 1.04 µM | 0.32 µM | 0.45 µM | 0.44 µM | 2.03 µM | significantly inhibited the cleavage | EC50 (SFTSV EndoN [1]): 308 µM; bioavailability ([3]; i.g. or i.p., SD rats): poor; AUC(0-t) [3, 16]: 265 ng·h/mL; Cmax [3, 16]: 12.8 ng/mL; Tmax [3, 16]: 2.5 h; half-life [3, 16]: 35 h; AUC(0-t) [3, 17]: 412 ng·h/mL; Cmax [3, 17]: 284 ng/mL; half-life [3, 17]: 16.1 h; water solubility (water solubility): poor water solubility; inhibition of SFTSV in time-of-addition experiment by IFA (SFTSV [5]): significant inhibitory activities under the post-entry and full-time treatment patterns; EC50 (LCMV EndoN): 365 µM; body weight change (SFTSV [8]): less than 10%; Kd (SFTSV EndoN [9]): 680 µM; influence on body weight (LCMV [12]): negligible influence; viral copies and proinflammatory factors in the liver (LCMV [12]; iv): reduced; influence on body weight (IAV (H1N1) [14]): negligible influence; lung pathology (H&E staining) (IAV (H1N1) [14]): significant pathological remission; viral copies in the lung (IAV (H1N1) [14]): lowered the viral copies in the lung; proinflammatory factors in the lung (IAV (H1N1) [14]; iv): downregulated
COc1c(/C=C/C(=O)c2ccc(O)c(CC=C(C)C)c2)ccc(O)c1O [Licochalcone D, licochalcone D] | 10 | – | – | 40 µM | – | – | – | 4.29 µM | 4 µM | – | –
COc1c(CC=C(C)C)c(O)cc2oc(=O)c(-c3ccc(O)cc3O)cc12 [Glycycoumarin, glycycoumarin] | 25 | – | – | 46.3 µM | – | – | – | 3.75 µM | 1.86 µM | – | –
NC(=O)c1nc(F)c[nH]c1=O [T-705, favipiravir, reference compound] | – | – | comparable inhibition rate under the post-infection and full-time treatment patterns but had a negligible influence on the virions or at the entry stage | – | – | – | – | – | ~47 µM | – | expression of proinflammatory factors (TNF-α, IL-1β, IL-6, IL-18) in blood and spleen (SFTSV [8]): markedly decreased; toxicity in mice (body weight) within 3 days (SFTSV [8]): neither tanshinone IIA nor T-705 exhibited obvious toxicity; viral copies in blood and spleen (SFTSV [8]): effectively reduced; influence on body weight (LCMV [12]): negligible influence; influence on body weight (IAV (H1N1) [14]): negligible influence; lung pathology (H&E staining) (IAV (H1N1) [14]): significant pathological remission
O=C1c2c(O)c(=O)ccn2N([C@@H]2c3ccccc3SCc3c2ccc(F)c3F)[C@@H]2COCCN12 [Baloxavir, baloxavir, reference compound] | 10 | 2.63 µM | – | 55.2 µM | 0.00102 µM | 1.32 µM | 3.74 µM | – | 5.66 µM | partially inhibited the cleavage | –
Cc1c(S(=O)(=O)[O-])oc2c1C(=O)C(=O)c1c-2ccc2c1CCCC2(C)C.[Na+] [tanshinone IIA sulfonate sodium] | – | – | – | – | – | – | – | – | – | – | water solubility [15]: significantly improved water solubility; antiviral activity against SFTSV relative to tanshinone I or IIA (SFTSV [2]): poorer antiviral activity
Cc1coc2c1C(=O)C(=O)c1c-2ccc2c1CCCC2(C)C [Tanshinone IIA, tanshinone IIA] | 85 | 4.64 µM | – | 242 µM | 4.02 µM | 1.64 µM | 1.2 µM | – | 2.86 µM | significantly inhibited the cleavage | EC50 (SFTSV EndoN [1]): 917 µM; EC50 (LCMV EndoN): 597 µM; expression of proinflammatory factors (TNF-α, IL-1β, IL-6, IL-18) in blood and spleen (SFTSV [8]): markedly decreased; toxicity in mice (body weight) within 3 days (SFTSV [8]): neither tanshinone IIA nor T-705 exhibited obvious toxicity; viral copies in blood and spleen (SFTSV [8]): effectively reduced; Kd (SFTSV EndoN [9]): 740 µM
CC(C)=CCc1cc2c(=O)cc(-c3ccc(O)cc3)oc2cc1O [Licoflavone A, licoflavone A] | 23 | – | acted at both the entry and post-entry stages | 63.8 µM | – | – | – | 2.5 µM | 2.8 µM | – | –
CC(C)=CCc1c(O)ccc(-c2coc3cc(O)cc(O)c3c2=O)c1O [Licoisoflavone A, licoisoflavone A] | 44 | – | – | 167 µM | – | – | – | 1.53 µM | 3.8 µM | – | –
Cc1cc(O)c2c(c1)C(=O)c1cc(O)cc(O)c1C2=O [Emodin, emodin] | 53 | – | – | 145 µM | – | – | – | 1.07 µM | 2.75 µM | – | inhibition of SFTSV in time-of-addition experiment by IFA (SFTSV [5]): significant inhibitory activities under the post-entry and full-time treatment patterns
